Assay results as given in patent US20220313658A1, “YAP Inhibition for Wound Healing” (The Board of Trustees of the Leland Stanford Junior …, priority 2019, published 2022).

Columns and labels:
Type in all cases: in vivo, mouse
[1] = tested on: dorsal excisional wounds; test: Example 2: excisional wound model, hair regrowth after single Verteporfin injection
Description: Adult mice were used for cutaneous wound healing experiments in accordance with well-established protocols. Briefly, mice were anesthetized (2% isofluorane), their dorsal hair was removed with depilatory cream, and the dorsal skin was prepped with alcohol wipes. Next, two 6 mm full-thickness circular wounds were placed through the panniculus carnosus on the dorsum of each animal at the same level, roughly 6 mm below the ears and 4 mm lateral to the midline. The wounds were then stented open by 12 mm diameter silicone rings secured around the wound perimeter with glue and 8 simple interrupted Ethilon 6-0 sutures (Ethicon). For mice receiving mechanotransduction inhibitor, 30 μL of Verteporfin (1 mg/mL) was injected locally into the wound base; PBS was injected into wounds for vehicle controls. Post-operative analgesia was accomplished with buprenorphine 0.05 mg/kg every four hours for three doses, and then as indicated. Dressings were changed every other day under anesthesia. […]

[2] = tested on: dorsal excisional wounds; test: Tensile strength testing (Instron) of healed wounds
Method: Tensile strength tests for unwounded skin (N=7) and PBS (N=5) or Verteporfin-treated (N=4) wounds in P60 C57BL/6 mice were conducted at POD 30 using an Instron 5565 equipped with a 100 N load cell. Dorsal skin was harvested and cut into 4 mm-by-15 mm strips. Tissue strips were then secured using custom grips with the scar positioned equidistant to each grip edge and preloaded to a force of 0.02 N to remove slack before the length of the tissue was measured using digital calipers; the width and thickness of the strips were also re-measured to confirm accurate dimensions. Finally, the skin was subjected to an extension test to failure, defined by a sharp decrease in stress with increasing strain, at a rate of 1%/s. The wound breaking force, or yield force, was determined at the maximal force before the tissue entered plastic deformation and eventual failure. True strain was calculated as the change in length divided by the original gauge length, and true stress was calculated as the force divided by the original cross-sectional area. The Young's Modulus was calculated by taking a least-squares regression of the slope during the linear, elastic portion of the stress-strain curve (R^2>0.99). […] In order to characterize the physical properties of Verteporfin-treated wounds, tensile testing was performed on unwounded skin and PBS- or Verteporfin-treated wounds after 30 days of healing.

[3] = tested on: dorsal excisional wounds; test: Quantitative analysis of collagen/ECM ultrastructure (Picrosirius Red, machine learning) of healed wounds
Method: For analysis of Picrosirius Red-stained histologic sections, scars and surrounding normal skin from three biologic replicates were randomly imaged at 5 to 10 separate locations each, for a minimum of 20 images per experimental condition. Next, color deconvolution of Picrosirius Red images was performed in ImageJ using the algorithm previously described by Ruifrok et al., (A. C. Ruifrok, D. A. Johnston, Quantification of histochemical staining by color deconvolution. Anal Quant Cytol Histol 23, 291-299 (2001)) wherein each pure stain is characterized by absorbances within three RGB channels (Color 1=[1 0 0], Color 2=[0 1 0], Color 3=[1 1 1]). Ortho-normal transformation of the histology images produced individual images corresponding to each color's individual contribution to the image. Applied to birefringent Picrosirius Red images (green to red color under polarized light depending on packing of fiber bundles), this technique produced deconvoluted red and green images corresponding to mature and immature connective tissue fibers, which were then analyzed independently. Analysis was thus performed purely using extracellular matrix fibers, with no cellular elements included. Noise reduction of deconvoluted fibers was achieved using an adaptive Wiener filter in Matlab 2019a (wiener2 function), which tailors itself to the local image variance within a pre-specified neighborhood (3-by-3 pixels in the current application). The filter preferentially smooths regions with low variance, thereby preserving sharp edges of fibers. Smooth images were then binarized using the im2bw command and processed through erosion and dilation filters with both linear and diamond-shaped structuring elements to select for fiber-shaped objects. Finally, the fiber network was “skeletonized” using the bwmorph command and various parameters of the digitized map (fiber length, width, persistence, alignment, etc.) were measured using the regionprops command. Dimensionality reduction of quantified fiber network properties by […] stochastic neighbor embedding (t-SNE) was achieved using the default tsne (distance metric specified as Euclidian distance) command in Matlab. A Matlab script containing the fiber quantification pipeline is available at the following Github repository: https://github.com/shamikmascharak/Mascharak-et-al-ENF
To overcome these challenges, a novel machine learning algorithm recently reported to quantitatively assess connective tissue and fibrosis based on standard histology stains was employed. (S. Mascharak et al., Automated machine learning analysis of connective tissue networks in acute and chronic skin fibroses (manuscript submitted). (2019)) Briefly, images of Picrosirius Red-stained tissue were color-deconvoluted to isolate ECM fibers from cell bodies and nuclei. Fiber components were image-processed to reduce noise, then binarized to produce a digital map of thousands of fibers and branchpoints. A panel of individual (e.g., length, width) and group (e.g., packing, alignment) fiber properties was then measured to quantitatively profile ECM features.
Verteporfin- and control-treated specimens were stained with Picrosirius Red and subjected to this analysis.

[4] = single local injection immediately following wounding

With verteporfin the “Regrowth of dermal appendages” value ([1]; POD 90 (FIG. 13, C)) was “regrowth of hair follicles and other dermal appendages”, the Hair regrowth [1, 4] was “dramatic increase in hair regrowth” and the “Regeneration of new hair follicles (gross, histology, immunohistochemistry)” value [1, 4] was “Regeneration of new hair follicles in Verteporfin-treated wounds was observed”. The Wound closure [1, 4] was “did not delay wound closure”, the “Force-displacement and stress-strain curves” value ([2]; after 1 month of healing) was “more closely resembled unwounded skin than scar” and the “Tensile strength (wound breaking force and Young's modulus)” value ([2]; after 30 days of healing, vs unwounded skin) was “did not significantly differ from that of unwounded skin”. For the same substance, the “Clustering of connective tissue parameters, Verteporfin-treated wounds vs unwounded skin” value (from here on “Clustering … vs unwounded skin”) ([3]; 30 days) was “increasing overlap”, the “Clustering … vs unwounded skin” value ([3]; 90 days) was “complete overlap” and the “ECM fiber metrics (fiber length, width, branching, etc.)” value ([3]; POD 14) was “comparable to unwounded skin”. For the same substance, the “Clustering … vs unwounded skin” value ([3]; after 14 days) was “largely overlapping clusters” and the ECM features ([3]; four treatments (POD 0, 4, 8 and 12)) was “diverged from those of unwounded skin”.
